Source: patent US6355616B1, “Derivative compounds derived from or based on bactericidal/permeability-increasing protein” (priority 1999, dated 2002)

Legend:
[1] = test system: Candida albicans designated CA-1, Strain SLU-1; assay type: cell-based; conditions: C. albicans SLU1; 24 hours at 37° C.; OD 595 nm below 0.1
Method: In each broth microdilution assay screening procedure, a colony of Candida albicans designated CA-1, Strain SLU-1 that was received from the laboratories of G. Matuschak and A. Lechner, St. Louis University Hospital, St. Louis, Mo., where the strain was maintained, was inoculated into a tube containing 5 mL Sabouraud Dextrose broth (2% dextrose, 1% neopeptone) and incubated at 37° C. with shaking. The overnight culture was diluted 1:50 into 5 ml of fresh broth and incubated for 3 hours at 37° C. to exponential phase growth. Organisms were pelleted by centrifugation in a Beckman J-6M centrifuge for 5 minutes at 3000 rpm (1500×g) and the pellets were resuspended in 5 mL phosphate buffered saline (PBS) and the optical density (OD) at 570 nm was determined. On the basis of the determination that one OD unit equals 3×10^7 colony forming units/mL (CFU/mL), yeast cells were diluted to 5×10^3 CFU/mL in Sabouraud Dextrose broth (SBD).
Derivatized peptide sequences based on Domain III of BPI to be screened which were originally constituted in Dulbecco's-PBS, were two-fold serially diluted in SDB starting from a concentration of 128 μg/mL. Equal volumes (100 μL) of yeast suspension as prepared above and derivatized peptide solution were added to wells of a 96-well sterile, flat bottom, non-pyrogenic tissue culture microtiter plate (Costar, Cambridge, Mass.) to reach a final volume of 200 μL/well. The plate was incubated on a shaker at 37° C. for 24 hours. All assays were performed in triplicate. Following the incubation period, plates were read in an ELISA plate reader at 595 nm wavelength to determine the minimum inhibitory concentration (MIC), i.e., the lowest concentration required to reduce the optical density at 595 nm to below 0.1 OD.

MDCK cells = assay: In vitro oral absorption screening, transepithelial transport across MDCK cell monolayers; assay type: in vitro ADME, canine
Method: For these experiments, peptide-based constructs are screened for potential oral absorption in in vitro screening assays using MDCK and/or CACO-2 cells. Briefly, cultured monolayers of Madin-Derby canine kidney epithelial (MDCK) cells (ATCC Accession No. CCL-34) and/or CACO-2 (Human colon carcinoma) cells [Audus, K. L., et al. Phar. Res., 7:435-451 (1990) are grown upon collagen-coated, permeable-filter supports (Becton Dickinson, Mountain View, Calif.). The cells are grown to confluency and allowed to differentiate (e.g., about 3 days for MDCK cells or about 21 days for CACO-2 cells). The integrity of the monolayers is determined by measuring the transepithelial resistance. The cells are incubated with a peptide-based construct on the apical side for 2.5 hours in MDCK or CACO-2 screening. The transepithelial transport of the construct is measured by quantitative HPLC analysis of the incubation media on the basolateral side of the cells (forward transport). Radiolabelled mannitol and/or cortisone are used as positive controls. In addition, the efflux of the construct is measured by quantitative HLPC analysis of the incubation media on the apical side of the cells. This follows incubation of the cells with construct on the basolateral side for 2.5 hours. […]
Following the days post seeding, the cells are ready for transport experiments. […]
Apical control wells containing 1.5 mL TM with tritiated mannitol (^3H-mannitol, 1 μCi/mL; Dupont NEN Research Products, #NET-101, Boston, Mass.) are analyzed separately for counts per minute (cpm) of tritium to test the integrity of the MDCK cell monolayers. […]

SMILES: CC[C@@H](C)[C@@H](NC(=O)[C@@H](CC(C)C)NC(=O)[C@@H](Cc1c[nH]c2ccccc12)NC(=O)[C@@H](CCCCN)NC(=O)c1ccccc1O)C(=O)N[C@H](CCC(N)=O)C(=O)N[C@H](CC(C)C)C(=O)N[C@H](Cc1ccccc1)C(=O)N[C@H](Cc1c[nH]cn1)C(=O)N[C@H](CCCCN)C(=O)N[C@H](CCCCN)C(N)=O [XMP.560]
- Broth Microdilution (MIC values in μg/mL C. albicans SLU1) [1]: 2 µg/mL
- cell absorption in MDCK cell screening assays (MDCK cells): 2%
- In Vitro Oral Availablity Screening (%) Forward (MDCK cells; apical to basolateral, 2.5 hours, donor ~100 μg/mL): ≧2%
- In Vitro Oral Availablity Screening (%) Efflux (MDCK cells; basolateral to apical, 2.5 hours, donor ~100 μg/mL): ≧2%
